Data: patent US6555541B1, “Substituted phenyl compounds with immunosuppressing activity and pharmaceutical compositions” (Astrazeneca UK Limited, priority 2000, dated 2003)
Structures can show the parent of a compound that is named as a salt.

Compound | melting point
O=C(CNc1ccc(F)c(F)c1)Nc1cc(N2CCNCC2)ccc1Cl (as salt: hydrochloride) | 240 °C (dec.)
Cc1ccc(CN2CCNCC2)cc1NC(=O)CNc1ccc(F)c(F)c1 (as salt: hydrochloride) [Example 1, 2-(3,4-Difluorophenylano)-N-(2-methyl-5-piperazin-1-ylmethyl-phenyl)-acetamide, trihydrochloride] | 232 to 248 °C (dec.)
Cc1cc(N2CCNCC2)ccc1NC(=O)CNc1ccc(F)c(F)c1 (as salt: hydrochloride) [Example 10, 2-(3,4-Difluoro-phenylamino)-N-(2-methyl-5-piperazin-1-yl-phenyl)-acetaniide, trihydrochloride] | > 230 °C
Cc1ccc(CN2CCNCC2)cc1NC(=S)CNc1ccc(F)c(F)c1 [Example 2, 2-(3,4-Difluoro-phenylamino)-N-(2-methyl-5-piperazin-1-ylmethyl-phenyl)-thioacetamide] | 72 to 82 °C (dec.)

The next lines start with the values.

melting point | Compound
160 °C (dec.) | Cc1c(Cn2ccnc2)cccc1NC(=O)CNc1ccc(F)c(F)c1 [Example 17, 2-(3,4-Difluorophenylamino)-N-(3-imidazol-1-ylmethyl-2-methylphenyl)acetamide]
144 °C (dec.) | Cc1c(CN(C)C)cccc1NC(=O)CNc1ccc(F)c(F)c1 [Example 18, 2-(3,4-Difluorophenylamino)-N-(3-dimethylaminomethyl-2-methylphenyl)acetamide]
